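Cultured in 96-well plates, cells were exposed to test compound for 48 hours across five concentrations. TGI: total growth inhibition.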
Legend:
Test in all cases: NCI-60 cell line screen, 48 h
786-0 renal = system: 786-0 renal
A498 renal = system: A498 renal
A549 NSCLC = system: A549 NSCLC
BT-549 breast = system: BT-549 breast
CAKI-1 renal = system: CAKI-1 renal
CCRF-CEM leukemia = system: CCRF-CEM leukemia
COLO 205 colon = system: COLO 205 colon
DU-145 prostate = system: DU-145 prostate
EKVX NSCLC = system: EKVX NSCLC
HCC-2998 colon = system: HCC-2998 colon
HCT-116 colon = system: HCT-116 colon
HCT-15 colon = system: HCT-15 colon
HL-60(TB) leukemia = system: HL-60(TB) leukemia
HOP-62 NSCLC = system: HOP-62 NSCLC
HOP-92 NSCLC = system: HOP-92 NSCLC
HS 578T breast = system: HS 578T breast
HT29 colon = system: HT29 colon
IGROV1 ovarian = system: IGROV1 ovarian
KM12 colon = system: KM12 colon
LOX IMVI melanoma = system: LOX IMVI melanoma
M14 melanoma = system: M14 melanoma
MALME-3M melanoma = system: MALME-3M melanoma
MCF7 breast = system: MCF7 breast
MDA-MB-231 breast = system: MDA-MB-231 breast
MDA-MB-435 = system: MDA-MB-435
MDA-N = system: MDA-N
MOLT-4 leukemia = system: MOLT-4 leukemia
NCI-H226 lung = system: NCI-H226 lung
NCI-H23 lung = system: NCI-H23 lung
NCI-H522 lung = system: NCI-H522 lung
NCI/ADR-RES ovarian = system: NCI/ADR-RES ovarian
OVCAR-3 ovarian = system: OVCAR-3 ovarian
OVCAR-4 ovarian = system: OVCAR-4 ovarian
OVCAR-5 ovarian = system: OVCAR-5 ovarian
OVCAR-8 ovarian = system: OVCAR-8 ovarian
PC-3 prostate = system: PC-3 prostate
RPMI-8226 leukemia = system: RPMI-8226 leukemia
RXF 393 renal = system: RXF 393 renal
SF-268 CNS = system: SF-268 CNS
SF-295 CNS = system: SF-295 CNS
SF-539 CNS = system: SF-539 CNS
SK-MEL-2 melanoma = system: SK-MEL-2 melanoma
SK-MEL-28 melanoma = system: SK-MEL-28 melanoma
SK-MEL-5 melanoma = system: SK-MEL-5 melanoma
SK-OV-3 ovarian = system: SK-OV-3 ovarian
SN12C renal = system: SN12C renal
SNB-75 CNS = system: SNB-75 CNS
SR leukemia = system: SR leukemia
SW-620 colon = system: SW-620 colon
T-47D breast = system: T-47D breast
TK-10 renal = system: TK-10 renal
U251 CNS = system: U251 CNS
UACC-257 melanoma = system: UACC-257 melanoma
UACC-62 melanoma = system: UACC-62 melanoma
UO-31 renal = system: UO-31 renal
ACHN renal = system: ACHN renal
K-562 leukemia = system: K-562 leukemia
NCI-H460 lung = system: NCI-H460 lung
SNB-19 CNS = system: SNB-19 CNS

Cc1sccc1C(=S)Nc1ccc(Cl)c(/C=N/OC(C)(C)C)c1
TGI (786-0 renal): 49.4 µM | TGI (A498 renal): 46.8 µM | TGI (A549 NSCLC): 63.5 µM | TGI (BT-549 breast): 35.2 µM | TGI (CAKI-1 renal): 24.4 µM | TGI (CCRF-CEM leukemia): > 100 µM | TGI (COLO 205 colon): 27.3 µM | TGI (DU-145 prostate): 29 µM | TGI (EKVX NSCLC): 42.4 µM | TGI (HCC-2998 colon): 30 µM | TGI (HCT-116 colon): > 100 µM | TGI (HCT-15 colon): 29 µM | TGI (HL-60(TB) leukemia): 38.6 µM | TGI (HOP-62 NSCLC): 30.6 µM | TGI (HOP-92 NSCLC): 35.3 µM | TGI (HS 578T breast): 62.3 µM | TGI (HT29 colon): 27.6 µM | TGI (IGROV1 ovarian): 29.4 µM | TGI (KM12 colon): 28.8 µM | TGI (LOX IMVI melanoma): 73.9 µM | TGI (M14 melanoma): 33.9 µM | TGI (MALME-3M melanoma): 31.1 µM | TGI (MCF7 breast): 26.7 µM | TGI (MDA-MB-231 breast): 27 µM | TGI (MDA-MB-435): 50.9 µM | TGI (MDA-N): 26.9 µM | TGI (MOLT-4 leukemia): 30.7 µM | TGI (NCI-H226 lung): 29.3 µM | TGI (NCI-H23 lung): 34.5 µM | TGI (NCI-H522 lung): 26.5 µM | TGI (NCI/ADR-RES ovarian): 45.1 µM | TGI (OVCAR-3 ovarian): 26.8 µM | TGI (OVCAR-4 ovarian): 32 µM | TGI (OVCAR-5 ovarian): 34.7 µM | TGI (OVCAR-8 ovarian): 34.1 µM | TGI (PC-3 prostate): 32.5 µM | TGI (RPMI-8226 leukemia): 27 µM | TGI (RXF 393 renal): 39 µM | TGI (SF-268 CNS): 43.9 µM | TGI (SF-295 CNS): 37.3 µM | TGI (SF-539 CNS): > 100 µM | TGI (SK-MEL-2 melanoma): 28.8 µM | TGI (SK-MEL-28 melanoma): 71 µM | TGI (SK-MEL-5 melanoma): 25.9 µM | TGI (SK-OV-3 ovarian): 79.3 µM | TGI (SN12C renal): 25.6 µM | TGI (SNB-75 CNS): > 100 µM | TGI (SR leukemia): 54.7 µM | TGI (SW-620 colon): > 100 µM | TGI (T-47D breast): 22.8 µM | TGI (TK-10 renal): 36.9 µM | TGI (U251 CNS): 62.1 µM | TGI (UACC-257 melanoma): 35.1 µM | TGI (UACC-62 melanoma): 34.2 µM | TGI (UO-31 renal): 25 µM

CNC(=O)CCC(NC(=O)OC(C)(C)C)C(=O)NC(Cc1ccc(NC(=O)CCCCC(C)=O)cc1)C(=O)NCC(=O)NC (stereo unspecified)
TGI (786-0 renal): > 100 µM | TGI (A498 renal): > 100 µM | TGI (A549 NSCLC): > 100 µM | TGI (ACHN renal): > 100 µM | TGI (BT-549 breast): > 100 µM | TGI (CAKI-1 renal): > 100 µM | TGI (COLO 205 colon): > 100 µM | TGI (DU-145 prostate): > 100 µM | TGI (EKVX NSCLC): > 100 µM | TGI (HCC-2998 colon): > 100 µM | TGI (HCT-116 colon): > 100 µM | TGI (HCT-15 colon): > 100 µM | TGI (HL-60(TB) leukemia): > 100 µM | TGI (HOP-62 NSCLC): > 100 µM | TGI (HOP-92 NSCLC): > 100 µM | TGI (HS 578T breast): > 100 µM | TGI (HT29 colon): > 100 µM | TGI (IGROV1 ovarian): > 100 µM | TGI (K-562 leukemia): > 100 µM | TGI (KM12 colon): > 100 µM | TGI (LOX IMVI melanoma): > 100 µM | TGI (M14 melanoma): > 100 µM | TGI (MALME-3M melanoma): > 100 µM | TGI (MCF7 breast): > 100 µM | TGI (MDA-MB-231 breast): > 100 µM | TGI (MDA-MB-435): > 100 µM | TGI (MDA-N): > 100 µM | TGI (MOLT-4 leukemia): > 100 µM | TGI (NCI-H226 lung): > 100 µM | TGI (NCI-H23 lung): > 100 µM | TGI (NCI-H460 lung): > 100 µM | TGI (NCI-H522 lung): > 100 µM | TGI (NCI/ADR-RES ovarian): > 100 µM | TGI (OVCAR-3 ovarian): > 100 µM | TGI (OVCAR-4 ovarian): > 100 µM | TGI (OVCAR-5 ovarian): > 100 µM | TGI (OVCAR-8 ovarian): > 100 µM | TGI (PC-3 prostate): > 100 µM | TGI (RPMI-8226 leukemia): > 100 µM | TGI (RXF 393 renal): > 100 µM | TGI (SF-268 CNS): > 100 µM | TGI (SF-295 CNS): > 100 µM | TGI (SF-539 CNS): > 100 µM | TGI (SK-MEL-28 melanoma): > 100 µM | TGI (SK-MEL-5 melanoma): > 100 µM | TGI (SK-OV-3 ovarian): > 100 µM | TGI (SN12C renal): > 100 µM | TGI (SNB-19 CNS): > 100 µM | TGI (SNB-75 CNS): > 100 µM | TGI (SR leukemia): > 100 µM | TGI (SW-620 colon): > 100 µM | TGI (T-47D breast): > 100 µM | TGI (TK-10 renal): > 100 µM | TGI (U251 CNS): > 100 µM | TGI (UACC-62 melanoma): > 100 µM | TGI (UO-31 renal): > 100 µM

From PubChem BioAssay (NCI)
